Legend:
[1] = test system: SNU—C4 3xFLAG-PXR KI cells; assay: TMT-MS whole-proteome quantification in SNU—C4 3xFLAG-PXR KI cells; assay type: cell-based, human; conditions: 5 μM, 12 h vs DMSO; 9,692 proteins detected
Method: The next day, 0.5% DMSO or 5 μM SJPYT-195 was added to triplicate dishes. After 12 h, the media were removed, cells were washed twice with ice cold PBS, 500 μL of 50 mM HEPES (pH 8.0) and 8 M urea was added to each dish, cells were scraped and transferred to 1.5 mL tubes, and the tubes were frozen on dry ice and stored at −80° C. Processing for TMT-MS was conducted according to a previously optimized protocol. To profile the whole proteome, the cell lysates (approximately 100 μg of protein per sample) were proteolyzed with Lys-C(Wako) at an enzyme-to-substrate ratio of 1:100 (w/w) for 3 h at room temperature. Samples were diluted with 50 mM HEPES (pH 8.5) to a final 2 M urea concentration. […]
Dried peptides were resuspended in 50 μL 100 mM HEPES (pH 8.5) and labeled with TMTpro 16plex Label Reagents [Thermo Fisher Scientific, 10 μg/μL in 100% ACN, 1:2 (w/w) ratio, room temperature for 1 h]. […] Fractions were dried in SpeedVac and resuspended in 5 μL 5% FA/1% trifluoroacetic acid immediately prior to mass spectrometry and quantitation analysis. […]
MS raw files were converted to mzXML files, and database searches were performed against Uniprot HUMAN protein database using our in-house developed JUMP pipeline. […] TMT-based quantification and statistical analysis were performed based on our previous method. […]

PXR = target: T1, PXR (Homo sapiens, UniProt O75469); assay: cell-based hPXR inverse agonistic assay
T1 sequence (O75469 1-434): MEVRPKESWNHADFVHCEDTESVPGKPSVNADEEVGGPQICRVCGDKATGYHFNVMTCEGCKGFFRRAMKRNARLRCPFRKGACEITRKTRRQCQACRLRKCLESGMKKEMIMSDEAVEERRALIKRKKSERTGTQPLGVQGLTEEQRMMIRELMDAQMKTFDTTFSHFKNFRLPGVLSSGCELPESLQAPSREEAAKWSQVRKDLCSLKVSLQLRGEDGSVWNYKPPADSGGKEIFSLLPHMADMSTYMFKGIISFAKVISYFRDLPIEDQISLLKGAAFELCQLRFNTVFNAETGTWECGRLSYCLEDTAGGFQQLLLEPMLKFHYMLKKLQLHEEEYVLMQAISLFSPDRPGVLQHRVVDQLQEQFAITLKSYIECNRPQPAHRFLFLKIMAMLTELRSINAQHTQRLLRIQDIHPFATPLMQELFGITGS

SMILES: COc1ccc(OC)c(-n2nnc(C(=O)Nc3cc(Oc4cccc5c4C(=O)N(C4CCC(=O)NC4=O)C5=O)cc(C(C)(C)C)c3)c2C)c1 (stereo not drawn) [Compound M4, N-(3-(tert-butyl)-5-((2-(2,6-dioxopiperidin-3-yl)-1,3-dioxoisoindolin-4-yl)oxy)phenyl)-1-(2,5-dimethoxyphenyl)-5-methyl-1H-1,2,3-triazole-4-carboxamide]
- proteins changed at whole-proteome scale (selectivity) [1]: five down-regulated proteins (GSPT1, GSPT2, ZFP91, CYP1A1, and BRIP1) and one upregulated protein (FOS)
- inhibition at 10 µM (PXR; read-out: Inverse agonist (% inhibition at 10 μM)): 133%
- IC50 (PXR; read-out: Inverse agonist (IC50/μM)): 0.18 ± 0.055 µM

From patent US20260116867A1, “PROTEOLYSIS TARGETING CHIMERAS FOR HUMAN PREGNANE X RECEPTOR AND FOR DEGRADATION OF GSPT1” (ST. JUDE CHILDREN'S RESEARCH HOSPITAL, priority 2022, published 2026)
